Consider 11 compounds from ChEMBL document CHEMBL1201862, “PubChem BioAssay data set” (2004).

Among the test systems are OVCAR-3; U-251; UO-31; NCI-H226; HCC 2998; OVCAR-4; NCI-H522; NCI-H460; EKVX; SF-539; SK-OV-3; OVCAR-8; K562; RXF 393; OVCAR-5; SNB-75; LOX IMVI; SF-268; HOP-92; COLO 205.
Test in all cases: growth of human tumour cells (NCI), 48 h

Values joined by “and” are separate entries in the source; they are usually repeats but may differ in a detail not shown here. Equal entries are not always repeated.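 In this assay, cells in 96-well plates receive the compound at five concentrations for 48 hours. Endpoints are linearly interpolated between the surrounding concentrations. GI50 is the concentration that inhibits growth by half.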 Active and inactive are the calls of the source. Cut-off read from the data, not from the text of the source: active = GI50 up to about 1.1 µM and inactive = higher. Some results are limits rather than exact numbers.

For `CCOC(=O)c1ncoc1[C@H]1COC(C)(C)O1`, the GI50 in the assay with OVCAR-3, in the assay on U-251, in the assay with UO-31, with NCI-H226, with HCC 2998 and with OVCAR-4 was > 100 µM (inactive) throughout. Moreover, the GI50 with NCI-H522, in the assay on NCI-H460, with EKVX, in the assay with SF-539, with SK-OV-3 and in the assay on OVCAR-8 was > 100 µM (inactive) each time. Also, the GI50 in the assay with K562, with RXF 393, in the assay with OVCAR-5, with SNB-75, in the assay on LOX IMVI and with SF-268 was > 100 µM (inactive) each time.
Consider `CCOC1=NC(C(F)(F)F)(C(F)(F)F)N=C(N2CCOCC2)O1`, for which the GI50 with OVCAR-3, with U-251, with UO-31, in the assay on HCC 2998, with OVCAR-4 and with NCI-H522 was > 100 µM (inactive) in each case. For the same compound, the GI50 with NCI-H460 is > 100 µM (inactive); with EKVX it was > 100 µM (inactive); with SF-539, > 100 µM (inactive); in the assay with SK-OV-3, > 100 µM (inactive); with OVCAR-8, > 100 µM (inactive); with RXF 393, 80.7 µM (inactive). Moreover, the GI50 in the assay with OVCAR-5, with SNB-75, in the assay on LOX IMVI, with HOP-92, in the assay on SF-268 and with COLO 205 was > 100 µM (inactive) in each case.
Regarding `C=C1C(=O)OCC2C(C(=O)O)=CC3C(C)C(C)=CC123` (configuration not stated), the GI50 was 12.4 µM (inactive) in the assay with OVCAR-3; 11 µM (inactive) in the assay on U-251; 14 µM (inactive) with UO-31; 19.1 µM (inactive) in the assay with NCI-H226; 10.2 µM (inactive) in the assay with HCC 2998; 8.32 µM (inactive) in the assay on OVCAR-4. Moreover, the GI50 in the assay with NCI-H522 is 2.31 µM (inactive); in the assay with NCI-H460 it was 9.14 µM (inactive); in the assay on EKVX, 21.7 µM (inactive); in the assay on SF-539, 8.51 µM (inactive); with SK-OV-3, 16.4 µM (inactive); in the assay on OVCAR-8, 9.59 µM (inactive). Also, the GI50 in the assay on K562 is 10.2 µM (inactive); in the assay with RXF 393, 7.4 µM (inactive); with OVCAR-5, 27.5 µM (inactive); with SNB-75, 13.9 µM (inactive); in the assay with LOX IMVI it was 8.13 µM (inactive); with HOP-92 it was 10.6 µM (inactive). Besides, the GI50 was 9.46 µM (inactive) in the assay with SF-268 and 10.6 µM (inactive) in the assay with COLO 205.
Take `CCOc1ccc2nc(-c3ccc(O)cc3)sc2c1`: the GI50 with OVCAR-3 was 46.9 µM (inactive); in the assay on U-251, 43.9 µM (inactive); in the assay on UO-31 it was 17.2 µM (inactive); with NCI-H226, > 100 µM (inactive); in the assay on NCI-H522 it was 4.82 µM (inactive); in the assay with NCI-H460, 77.1 µM (inactive). Further, the GI50 is 10.3 µM (inactive) in the assay on EKVX; 45 µM (inactive) with SF-539; 24.2 µM (inactive) in the assay with SK-OV-3; 48.6 µM (inactive) in the assay with OVCAR-8; > 100 µM (inactive) with K562; 37 µM (inactive) with RXF 393. The GI50 in the assay on OVCAR-5 was > 100 µM (inactive); with LOX IMVI, > 100 µM (inactive); with SF-268, 19.6 µM (inactive); in the assay on COLO 205, > 100 µM (inactive).
In the case of `O=C1c2cc3c(cc2[C@@H]2C(O)[C@H]4O[C@H]4C4CCN1C42)OCO3` (some centres not stated), the GI50 in the assay on OVCAR-3, with UO-31, in the assay on NCI-H226, with HCC 2998, in the assay on OVCAR-4 and in the assay with NCI-H522 was > 37.5 µM (inactive) throughout. In addition, the GI50 in the assay on NCI-H460, in the assay with EKVX, in the assay on SF-539, in the assay with SK-OV-3, in the assay with OVCAR-8 and in the assay with K562 was > 37.5 µM (inactive) each time. Further, the GI50 in the assay with OVCAR-5, in the assay on LOX IMVI, in the assay on HOP-92, with SF-268 and in the assay with COLO 205 was > 37.5 µM (inactive) throughout.
With `CN(C)CC(CC1=C(CC(CN(C)C)N(C)C)CCC1)N(C)C` (configuration not stated), the GI50 in the assay on OVCAR-3, in the assay with U-251, with UO-31, in the assay with NCI-H226, in the assay on HCC 2998 and in the assay on OVCAR-4 was > 100 µM (inactive) throughout. Moreover, the GI50 in the assay on NCI-H522, in the assay with NCI-H460, with EKVX, in the assay with SF-539, in the assay on SK-OV-3 and with OVCAR-8 was > 100 µM (inactive) in each case. The GI50 with K562, in the assay with RXF 393, with OVCAR-5, in the assay on SNB-75, with LOX IMVI and in the assay with HOP-92 was > 100 µM (inactive) throughout. In addition, the GI50 in the assay with SF-268 and in the assay with COLO 205 was > 100 µM (inactive) throughout.
As to `Cc1ccc(NC(=O)CC/C(CC(=O)C(C)(C)C)=N/NC(=O)c2cc3ccccc3cc2O)cc1C`, the GI50 with OVCAR-3 was 32.7 µM (inactive); with U-251, 35.6 µM (inactive); in the assay with UO-31 it was 38.6 µM (inactive); with NCI-H226, 37.2 µM (inactive); in the assay with HCC 2998 it was 29.2 µM (inactive); with OVCAR-4 it was 30.8 µM (inactive). The GI50 was 39.4 µM (inactive) in the assay with NCI-H460; 36.5 µM (inactive) in the assay on EKVX; 50 µM (inactive) with SK-OV-3; 26.8 µM (inactive) in the assay with OVCAR-8; > 10 µM (inactive) with K562; 35.2 µM (inactive) with RXF 393. Also, the GI50 was 32.1 µM (inactive) in the assay with OVCAR-5; 20.3 µM (inactive) in the assay on LOX IMVI; 47.6 µM (inactive) in the assay on HOP-92; 33.3 µM (inactive) in the assay with SF-268; 39.1 µM (inactive) in the assay on COLO 205.
On to `COc1ccc(C2=N/C(=C\c3ccccc3)C(=O)O2)cc1`, for which the GI50 in the assay with OVCAR-3 is 53.7 µM (inactive); with U-251 it was 62.7 µM (inactive); in the assay on NCI-H226, 28.5 µM (inactive); in the assay with HCC 2998, 75.9 µM (inactive); in the assay with OVCAR-4 it was 37.1 µM (inactive); in the assay on NCI-H460 it was > 100 µM (inactive). The GI50 in the assay with EKVX was > 100 µM (inactive); in the assay on SF-539 it was 44.3 µM (inactive); in the assay with SK-OV-3 it was > 100 µM (inactive); with OVCAR-8, 30.8 µM (inactive); with K562, 34 µM (inactive); in the assay with RXF 393 it was > 100 µM (inactive). For the same compound, the GI50 in the assay with OVCAR-5 is > 100 µM (inactive); in the assay with SNB-75, 45.2 µM (inactive); in the assay with HOP-92, > 100 µM (inactive); in the assay with SF-268 it was > 100 µM (inactive).
For the compound `CCCCCCCCCCSCC(CO)NC(=O)/C=C/c1c(C)[nH]c(=O)[nH]c1=O` (configuration not stated), the GI50 in the assay on OVCAR-3 was 916 nM (active) and 798 nM (active); with U-251, 532 nM (active) and 355 nM (active); with UO-31 it was 10.5 µM (inactive) and 6.84 µM (inactive); in the assay with HCC 2998, 1.08 µM (active) and 1.17 µM (inactive); in the assay on NCI-H522, 243 nM (active) and 393 nM (active); in the assay on NCI-H460, 1.51 µM (inactive) and 1.76 µM (inactive). Moreover, the GI50 in the assay on EKVX was 3.93 µM (inactive) and 2.01 µM (inactive); with SF-539, 1.46 µM (inactive) and 1.41 µM (inactive); with OVCAR-8, 1.04 µM (active) and 1.09 µM (active); in the assay with K562, 908 nM (active) and 1.12 µM (inactive); in the assay with RXF 393, 1.36 µM (inactive) and 2.69 µM (inactive); in the assay on OVCAR-5, > 21.2 µM (inactive) and > 27.5 µM (inactive). Further, the GI50 in the assay with SNB-75 is 1.39 µM (inactive) and 1.32 µM (inactive); in the assay with LOX IMVI, 1.29 µM (inactive) and 1.42 µM (inactive); in the assay with HOP-92, 1.54 µM (inactive) and 820 nM (active); in the assay on SF-268, 684 nM (active) and 723 nM (active); in the assay on COLO 205, 762 nM (active) and 1.19 µM (inactive).
For `CO/C(=N\N=C(/c1ccccc1)C(F)(F)F)c1ccncc1`, the GI50 was 37.8 µM (inactive) with OVCAR-3; 48.4 µM (inactive) in the assay on U-251; 38.6 µM (inactive) with UO-31; 17.2 µM (inactive) in the assay with NCI-H226; 80.7 µM (inactive) with OVCAR-4; 26.6 µM (inactive) with NCI-H522. Besides, the GI50 with NCI-H460 is 35.8 µM (inactive); with SK-OV-3, 46.3 µM (inactive); with OVCAR-8 it was 69.5 µM (inactive); in the assay with K562 it was 6.44 µM (inactive); in the assay on RXF 393 it was 16.3 µM (inactive); in the assay on OVCAR-5, > 100 µM (inactive). Moreover, the GI50 was 34.9 µM (inactive) in the assay with SNB-75, 53.2 µM (inactive) in the assay with HOP-92 and 28.7 µM (inactive) in the assay on COLO 205.
`COc1cccc(N2C(=O)CSC2c2c[nH]c3ccccc23)c1` (configuration not stated): the GI50 is > 100 µM (inactive) in the assay on OVCAR-3; > 100 µM (inactive) in the assay with U-251; > 100 µM (inactive) with UO-31; > 100 µM (inactive) in the assay with HCC 2998; 73.6 µM (inactive) in the assay on OVCAR-4; 97.9 µM (inactive) with NCI-H522. The GI50 with NCI-H460, with EKVX, in the assay with SK-OV-3, with OVCAR-8, with K562 and in the assay with RXF 393 was > 100 µM (inactive) throughout. Besides, the GI50 with OVCAR-5 was > 100 µM (inactive); in the assay with SNB-75, > 100 µM (inactive); in the assay with LOX IMVI, > 100 µM (inactive); with HOP-92 it was 66.1 µM (inactive); with SF-268, > 100 µM (inactive); in the assay with COLO 205, > 100 µM (inactive).
